Experimental data published in ChEMBL document CHEMBL1201862, “PubChem BioAssay data set” (2004).
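Protocol summary: plate cells (96-well), add compound at 5 concentrations, incubate 48 h, interpolate endpoints linearly. The concentration for 50% growth inhibition is given as GI50.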 The source made the active and inactive calls. Rule as the data show it: active = GI50 up to about 1.1 µM and inactive = higher.

Key:
Assay in all cases: growth of human tumour cells (NCI), 48 h
[1] = system: 786-0
[2] = system: A498
[3] = system: A549
[4] = system: ACHN
[5] = system: BT-549
[6] = system: CAKI-1
[7] = system: CCRF-CEM
[8] = system: COLO 205
[9] = system: DU-145
[10] = system: EKVX
[11] = system: HCC 2998
[12] = system: HCT-116
[13] = system: HCT-15
[14] = system: HOP-62
[15] = system: HT-29
[16] = system: Hs-578T
[17] = system: IGROV-1
[18] = system: K562
[19] = system: KM12
[20] = system: M14
[21] = system: MCF7
[22] = system: MDA-MB-231
[23] = system: MDA-MB-435
[24] = system: MDA-N
[25] = system: MOLT-4
[26] = system: Malme-3M
[27] = system: NCI-H226
[28] = system: NCI-H23
[29] = system: NCI-H460
[30] = system: NCI-H522
[31] = system: NCI/ADR-RES
[32] = system: OVCAR-3
[33] = system: OVCAR-4
[34] = system: OVCAR-5
[35] = system: OVCAR-8
[36] = system: PC-3
[37] = system: RPMI-8226
[38] = system: RXF 393
[39] = system: SF-268
[40] = system: SF-295
[41] = system: SK-MEL-28
[42] = system: SK-MEL-2
[43] = system: SK-MEL-5
[44] = system: SK-OV-3
[45] = system: SN12C
[46] = system: SNB-19
[47] = system: SNB-75
[48] = system: SR
[49] = system: SW-620
[50] = system: T47D
[51] = system: TK-10
[52] = system: U-251
[53] = system: UACC-257
[54] = system: UACC-62
[55] = system: UO-31
[56] = system: HL-60
[57] = system: HOP-92
[58] = system: LOX IMVI
[59] = system: SF-539

CC(=O)Nc1ccccc1S(=O)(=O)c1c(-c2c(C)c(Cl)c(C)c(Cl)c2C)noc1C
GI50 [1]: 18.4 µM (inactive)
GI50 [2]: 57 µM (inactive)
GI50 [3]: 60.1 µM (inactive)
GI50 [4]: 55.2 µM (inactive)
GI50 [5]: 33.9 µM (inactive)
GI50 [6]: 28.9 µM (inactive)
GI50 [7]: 27.8 µM (inactive)
GI50 [8]: > 100 µM (inactive)
GI50 [9]: 88.3 µM (inactive)
GI50 [10]: 48.9 µM (inactive)
GI50 [11]: 90.4 µM (inactive)
GI50 [12]: 51.5 µM (inactive)
GI50 [13]: > 100 µM
GI50 [14]: 19.7 µM (inactive)
GI50 [15]: 55.2 µM (inactive)
GI50 [16]: 28.6 µM (inactive)
GI50 [17]: 56.6 µM (inactive)
GI50 [18]: 33.3 µM (inactive)
GI50 [19]: > 100 µM (inactive)
GI50 [20]: 74.3 µM (inactive)
GI50 [21]: 35.1 µM (inactive)
GI50 [22]: 23.7 µM (inactive)
GI50 [23]: > 100 µM (inactive)
GI50 [24]: 37.2 µM (inactive)
GI50 [25]: 24.2 µM (inactive)
GI50 [26]: > 100 µM (inactive)
GI50 [27]: 27 µM (inactive)
GI50 [28]: 67.6 µM (inactive)
GI50 [29]: 26.5 µM (inactive)
GI50 [30]: 49.5 µM (inactive)
GI50 [31]: 41.2 µM (inactive)
GI50 [32]: 57.8 µM (inactive)
GI50 [33]: 14.7 µM (inactive)
GI50 [34]: > 100 µM (inactive)
GI50 [35]: 37 µM (inactive)
GI50 [36]: 35.1 µM (inactive)
GI50 [37]: 29.2 µM (inactive)
GI50 [38]: 28.8 µM (inactive)
GI50 [39]: 75.2 µM (inactive)
GI50 [40]: 32.8 µM (inactive)
GI50 [41]: > 100 µM (inactive)
GI50 [42]: > 100 µM (inactive)
GI50 [43]: > 100 µM (inactive)
GI50 [44]: 31.7 µM (inactive)
GI50 [45]: 30.3 µM (inactive)
GI50 [46]: 26 µM (inactive)
GI50 [47]: 12.4 µM (inactive)
GI50 [48]: 16.1 µM (inactive)
GI50 [49]: > 100 µM (inactive)
GI50 [50]: 68.1 µM (inactive)
GI50 [51]: 23.3 µM (inactive)
GI50 [52]: 31.6 µM (inactive)
GI50 [53]: 60.7 µM (inactive)
GI50 [54]: 28.9 µM (inactive)
GI50 [55]: > 100 µM (inactive)

Cc1ccc(Cc2n[nH]c(=O)[nH]2)cc1
GI50 [1]: > 100 µM (inactive)
GI50 [2]: > 100 µM (inactive)
GI50 [3]: > 100 µM (inactive)
GI50 [4]: > 100 µM (inactive)
GI50 [5]: > 100 µM (inactive)
GI50 [6]: > 100 µM (inactive)
GI50 [7]: > 100 µM (inactive)
GI50 [8]: > 100 µM (inactive)
GI50 [9]: > 100 µM (inactive)
GI50 [10]: > 100 µM (inactive)
GI50 [11]: > 100 µM (inactive)
GI50 [12]: > 100 µM (inactive)
GI50 [13]: > 100 µM
GI50 [56]: > 100 µM (inactive)
GI50 [14]: > 100 µM (inactive)
GI50 [57]: > 100 µM (inactive)
GI50 [15]: > 100 µM (inactive)
GI50 [16]: > 100 µM (inactive)
GI50 [17]: > 100 µM (inactive)
GI50 [18]: > 100 µM (inactive)
GI50 [19]: > 100 µM (inactive)
GI50 [58]: > 100 µM (inactive)
GI50 [20]: > 100 µM (inactive)
GI50 [21]: 28.6 µM (inactive)
GI50 [22]: > 100 µM (inactive)
GI50 [23]: > 100 µM (inactive)
GI50 [24]: > 100 µM (inactive)
GI50 [25]: > 100 µM (inactive)
GI50 [26]: > 100 µM (inactive)
GI50 [27]: > 100 µM (inactive)
GI50 [28]: > 100 µM (inactive)
GI50 [29]: > 100 µM (inactive)
GI50 [31]: > 100 µM (inactive)
GI50 [32]: > 100 µM (inactive)
GI50 [33]: > 100 µM (inactive)
GI50 [34]: > 100 µM (inactive)
GI50 [35]: > 100 µM (inactive)
GI50 [36]: > 100 µM (inactive)
GI50 [40]: > 100 µM (inactive)
GI50 [59]: > 100 µM (inactive)
GI50 [41]: > 100 µM (inactive)
GI50 [42]: > 100 µM (inactive)
GI50 [43]: > 100 µM (inactive)
GI50 [44]: > 100 µM (inactive)
GI50 [45]: > 100 µM (inactive)
GI50 [46]: > 100 µM (inactive)
GI50 [47]: > 100 µM (inactive)
GI50 [48]: > 100 µM (inactive)
GI50 [49]: > 100 µM (inactive)
GI50 [50]: > 100 µM (inactive)
GI50 [51]: > 100 µM (inactive)
GI50 [52]: > 100 µM (inactive)
GI50 [53]: > 100 µM (inactive)
GI50 [54]: > 100 µM (inactive)
GI50 [55]: > 100 µM (inactive)

Nc1nc(=O)c(/N=N/c2ccc([As](=O)(O)O)cc2)c(N)[nH]1
GI50 [1]: > 100 µM (inactive)
GI50 [2]: > 100 µM (inactive)
GI50 [3]: > 100 µM (inactive)
GI50 [4]: > 100 µM (inactive)
GI50 [5]: > 100 µM (inactive)
GI50 [6]: > 100 µM (inactive)
GI50 [7]: > 100 µM (inactive)
GI50 [8]: > 100 µM (inactive)
GI50 [9]: > 100 µM (inactive)
GI50 [10]: > 100 µM (inactive)
GI50 [11]: > 100 µM (inactive)
GI50 [12]: > 100 µM (inactive)
GI50 [13]: > 100 µM
GI50 [56]: > 100 µM (inactive)
GI50 [14]: > 100 µM (inactive)
GI50 [15]: > 100 µM (inactive)
GI50 [16]: > 100 µM (inactive)
GI50 [17]: > 100 µM (inactive)
GI50 [18]: > 100 µM (inactive)
GI50 [19]: > 100 µM (inactive)
GI50 [58]: > 100 µM (inactive)
GI50 [20]: > 100 µM (inactive)
GI50 [21]: > 100 µM (inactive)
GI50 [22]: > 100 µM (inactive)
GI50 [23]: > 100 µM (inactive)
GI50 [24]: > 100 µM (inactive)
GI50 [25]: > 100 µM (inactive)
GI50 [26]: > 100 µM (inactive)
GI50 [27]: > 100 µM (inactive)
GI50 [28]: > 100 µM (inactive)
GI50 [29]: > 100 µM (inactive)
GI50 [30]: > 100 µM (inactive)
GI50 [31]: > 100 µM (inactive)
GI50 [32]: > 100 µM (inactive)
GI50 [33]: > 100 µM (inactive)
GI50 [34]: > 100 µM (inactive)
GI50 [35]: > 100 µM (inactive)
GI50 [36]: > 100 µM (inactive)
GI50 [37]: > 100 µM (inactive)
GI50 [38]: > 100 µM (inactive)
GI50 [39]: > 100 µM (inactive)
GI50 [40]: > 100 µM (inactive)
GI50 [41]: > 100 µM (inactive)
GI50 [42]: > 100 µM (inactive)
GI50 [43]: > 100 µM (inactive)
GI50 [44]: > 100 µM (inactive)
GI50 [45]: > 100 µM (inactive)
GI50 [46]: > 100 µM (inactive)
GI50 [47]: > 100 µM (inactive)
GI50 [48]: > 100 µM (inactive)
GI50 [49]: > 100 µM (inactive)
GI50 [50]: > 100 µM (inactive)
GI50 [51]: > 100 µM (inactive)
GI50 [52]: > 100 µM (inactive)
GI50 [53]: > 100 µM (inactive)
GI50 [54]: > 100 µM (inactive)
GI50 [55]: > 100 µM (inactive)
